pIC50: −log10 of the molar value.
Assays:
[1] = system: SW480 cells; assay: Trypan blue assay, SW480; assay type: cell-based, human; details: SW480, 72 h; for Cell Number × 10^5 / Viability (%): compound at IC50 concentration
Protocol: (§1) In order to estimate the tumor and normal cell population density and their viability after treatment with compounds 1–3, 8, and 9, the trypan blue dye exclusion assay was performed. The live cell number of all cancerous cells incubated for 72 h with the studied thioureas was considerably lower in comparison with the controls (Table 2; Figure S1A). The highest reduction in cell amount was denoted for both colon SW480 and SW620 cells treated with the dichlorophenyl derivative 2, and it accounted for 93%. […] Similarly, a noticeable decline in both colon cancer cell populations was observed after treatment with the ortho-substituted compound 8. The number of live cells equaled 12% and 18%, respectively, as compared to controls. This thiourea also led to a reduction of PC3 cells of 38%, and leukemia K-562 cell lines of 27%. The number of SW620 and PC3 cells decreased by 72% and 63% in the presence of para-substituted compound 9. However, the reducing influence of this thiourea on the number of other cancerous cells was at the level of 21–32%. […] A significant effect on the other studied pathological cells was also noticed and accounted for 32–46%. Furthermore, the derivative 3 reduced the amount of live cancer cells by 32–59%, of which its decreasing impact on colon cancer cells was the greatest.
(§2) The live cell count was assessed by the trypan blue exclusion dye assay using an automated cell counter (CountessTM Invitrogen, Waltham, MA, USA). Untreated cells were used as the control.

[2] = system: SW620 cells; assay: Trypan blue assay, SW620; assay type: cell-based, human; details: SW620, 72 h; for reduction in live cell number: vs control; for Cell Number × 10^5 / Viability (%): compound at IC50 concentration
Protocol: as §1, §2

[3] = system: SW480 cells; assay: Annexin V-FITC/PI flow cytometry, SW480; assay type: cell-based, human; details: SW480, 72 h, IC50 concentration
Protocol: (§3) To estimate the mechanism of anticancer activity of the selected compounds 1–3, 8, and 9, their effect on both early and late apoptosis was evaluated by flow cytometry analysis. […] Additionally, visible late apoptosis-inducing properties in these cell lines were denoted for the compound 9 (47% ± 3.0%), which was twice as strong towards the colon tumor cells mentioned above. The apoptotic properties of analogs 3 and 8 in K-562 cells varied from 30% ± 1.6% to 33% ± 2.3%. […] Whereas the apoptosis-generating influence of derivatives 2 and 3 on normal keratinocytes was higher (29% and 23%), their selectivity measured by MTT methods is favorable. The obtained results are in agreement with the IC50 values assigned to pathological cancer cell lines. The cells were cultured and harvested under the conditions described in Section 3.2.1. […] The effect of these compounds on the process of early and late apoptosis and necrosis was determined as described previously by dual staining with Annexin V:FITC and propidium iodide, according to the manufacturer’s protocol (Becton Dickinson). The cells that were Annexin V:FITC positive and PI negative were identified as early apoptotic, and Annexin V:FITC and PI positive as late apoptotic or necrotic.

[4] = system: HaCaT cells; assay: Annexin V-FITC/PI flow cytometry, HaCaT; assay type: cell-based, human; details: 72 h, IC50 concentration, Annexin V-FITC/PI
Protocol: as §3

[5] = system: IL-6 level, SW480 cells; assay: IL-6 level ELISA, SW480; assay type: cell-based, human; details: SW480, 72 h; for reduction (inhibition) of IL-6 level: IC50 concentration, vs control; for IL-6 Concentration: compound at IC50 concentration, ELISA
Protocol: Because of the low secretion of IL-6 by leukemic cells compared to solid tumors, and in addition to the lack of IL-6 receptors in K-562 cells, studies of the effect of derivatives 1–3, 8, and 9 on the inhibition of IL-6 release were carried out on primary and secondary solid tumor cells (SW480, SW620, and PC3). A remarkable inhibition of the IL-6 level was denoted for both colon cancer cell lines. Compound 2, identified as the strongest inhibitor, reduced the interleukin level by 54% (in SW480 cells) and 63% (SW620 cells). A significant effect was also observed in these cells for its structural isomer 3 (39% and 23% of inhibition, respectively). Additionally, compound 3 considerably affected the IL-6 level produced by PC3 cells, and reduced it by 33%. Similarly, the treatment with derivative 1 was effective for both colon cancer cells. In its presence, IL-6 release decreased by 28–36%, as compared to controls. For monosubstituted derivatives 8 and 9, the observed IL-6-reducing influence was weaker. They both inhibited IL-6 secretion in SW480 and SW620 cell lines by 25–32%. In contrast to compound 9, thiourea 8 additionally diminished the cytokine level in PC3 cells by 26%.
The IL-6 concentration in all studied cancer cells and normal HaCaT cell lines was measured by an ELISA kit (Diaclon SAS Besancon CEDEX, Besançon, France). […] IL-6 in cell culture supernatant was measured using the enzyme-linked immunosorbent assay in accordance with the manufacturer’s protocol.

[6] = system: SW480, SW620, PC3, K-562 cells; assay: MTT assay, summary over cancer cell lines; assay type: cell-based; details: Homo sapiens, 72 h, depending on the tumor line, read-out: IC50 (range or bound over cancer cell lines)
Protocol: As a first step in assessing their cytotoxic properties, all thioureas of the series were assayed against four human carcinoma cell lines, such as SW480 (primary colon cancer), SW620 (metastatic colon cancer), PC3 (metastatic prostate cancer), and K-562 (chronic myelogenous leukemia), as well as against the normal cell line HaCaT (immortalized human keratinocytes). Table 1 lists the compound concentrations that produced 50% of growth inhibition (IC50, μM), generated by the MTT method, in comparison with two commonly used chemotherapeutic agents, doxorubicin and cisplatin.
Cells without the studied compounds in medium were used as a control.
The cell viability was assessed by determination of MTT salt [3-(4,5-dimethylthiazol-2-yl)-2,5-diphenyltetrazoliumbromide] conversion by mitochondrial dehydrogenase. The MTT assay was performed as previously described. Alternatively, non-adherent leukemic cells were centrifuged in a microplate centrifuge (400× g, 5 min) during the collection stages. Experiments were repeated three times. Cell viability was presented as a percent of MTT reduction in the treated cells versus the control cells. The number of viable cells cultured without the studied compounds was assumed as 100%. A decreased relative MTT level indicated decreased cell viability. Thiourea compounds with the highest cytotoxic potential assessed by MTT determination (with the lowest IC50) were chosen for subsequent assessments of cytotoxicity mechanisms.

[7] = system: PC3 cells; assay: Annexin V-FITC/PI flow cytometry, PC3; assay type: cell-based, human; details: PC3, 72 h, IC50 concentration
Protocol: as §3

## FC(F)(F)c1cccc(NC(=S)Nc2ccc(Cl)c(Cl)c2)c1 [Compound 2, 1-(3,4-dichlorophenyl)-3-[3-(trifluoromethyl)phenyl]thiourea]
[1]; IC50 concentration, vs control
  reduction in live cell number: 93%
[1]
  Cell Number × 10^5: 0.3 ± 0.35 × 10^5
  Viability (%): 45 ± 2.40%
[2]; IC50 concentration
  reduction in live cell number: 93%
[2]
  Cell Number × 10^5: 0.4 ± 0.22 × 10^5
  Viability (%): 42 ± 1.30%
[3]
  cells in late apoptosis: 95% ± 1.5%
[4]
  cells in late apoptosis: 29%
[5]
  reduction (inhibition) of IL-6 level: 54%
  IL-6 Concentration: 3.6 ± 0.02 pg/mL

## Fc1ccc(NC(=S)Nc2cccc(C(F)(F)F)c2)cc1Cl [Compound 1, 1-(3-chloro-4-fluorophenyl)-3-[3-(trifluoromethyl)phenyl]thiourea]
[1]
  Cell Number × 10^5: 2.0 ± 0.30 × 10^5
  Viability (%): 69 ± 1.30%
[2]
  Cell Number × 10^5: 1.3 ± 0.25 × 10^5
  Viability (%): 79 ± 1.30%
[3]
  cells in late apoptosis: 60% ± 1.8%
[5]
  IL-6 Concentration: 5.7 ± 0.01 pg/mL
[6]
  pIC50: ≥ 5.00

## FC(F)(F)c1ccc(NC(=S)Nc2cccc(C(F)(F)F)c2)cc1 [Compound 8, 1-[3-(trifluoromethyl)phenyl]-3-[4-(trifluoromethyl)phenyl]thiourea]
[1]; IC50 concentration
  number of live cells as compared to controls: 12%
[1]
  Cell Number × 10^5: 0.4 ± 0.15 × 10^5
  Viability (%): 90 ± 2.30%
[2]; IC50 concentration
  decrease of cell viability: 45%
  number of live cells as compared to controls: 18%
[2]
  Cell Number × 10^5: 1.0 ± 0.20 × 10^5
  Viability (%): 55 ± 1.11%
[3]
  cells in late apoptosis: 97% ± 1.2%
[7]
  cells in late apoptosis: 25% ± 1.5%
[5]
  IL-6 Concentration: 5.3 ± 0.01 pg/mL
other
  melting point: 134 to 136 °C

## FC(F)(F)c1cccc(NC(S)=Nc2ccc(Cl)cc2Cl)c1 [Compound 3, 1-(2,4-dichlorophenyl)-3-[3-(trifluoromethyl)phenyl]thiourea]
[1]
  Cell Number × 10^5: 1.5 ± 0.10 × 10^5
  Viability (%): 90 ± 1.30%
[2]
  Cell Number × 10^5: 2.4 ± 0.20 × 10^5
  Viability (%): 93 ± 2.33%
[4]
  cells in late apoptosis: 23%
[5]
  reduction (inhibition) of IL-6 level: 39%
  IL-6 Concentration: 4.8 ± 0.04 pg/mL
[6]
  pIC50: ≥ 5.00

## FC(F)(F)c1cccc(NC(=S)Nc2ccc(Cl)cc2)c1 [Compound 9, 1-(4-chlorophenyl)-3-[3-(trifluoromethyl)phenyl]thiourea]
[1]
  Cell Number × 10^5: 2.5 ± 0.12 × 10^5
  Viability (%): 72 ± 2.25%
[2]; IC50 concentration
  reduction in live cell number: 72%
[2]
  Cell Number × 10^5: 1.6 ± 0.11 × 10^5
  Viability (%): 84 ± 3.08%
[3]
  cells in late apoptosis: 24% ± 0.4%
[5]
  IL-6 Concentration: 5.5 ± 0.02 pg/mL
[6]
  pIC50: ≥ 5.00

Reference: paper PMC8623398, “Investigation of the Mechanisms of Cytotoxic Activity of 1,3-Disubstituted Thiourea Derivatives” (Pharmaceuticals, 2021)
